Data: patent publication US12194007B2, “Pharmaceutical composition for preventing or treating cancer, comprising gossypol, phenformin, and anticancer agent” (National Cancer Center, priority 2018, dated 2025)

Legend:
[1] = system: BT549 cell line or MB231 cell line; assay: SRB cell proliferation assay, breast cancer cell lines; assay type: cell-based
[2] = system: PC3 cells xenograft tumor; assay: Prostate cancer mouse model, tumor growth; assay type: in vivo, Balb/c-nu mice; settings: gossypol 80 mg/kg, phenformin 100 mg/kg, doxorubicin 5 mg/kg, single, double or triple (Table 28, FIGS. 13A, 13B)
[3] = system: PC3 cell line or DU145 cell line; assay: SRB cell proliferation assay, prostate cancer cell lines; assay type: cell-based; settings: gossypol 5 μM, phenformin 100 μM, doxorubicin 1 nM, single, double or triple (Table 19, FIG. 7A)

COc1cccc2c1C(=O)c1c(O)c3c(c(O)c1C2=O)C[C@@](O)(C(=O)CO)C[C@@H]3O[C@H]1C[C@H](N)[C@H](O)[C@H](C)O1 [doxorubicin]
synergistic effect of anticancer action when mixed with gossypol and phenformin ([1]; breast cancer, named agent + gossypol 5 μM + phenformin 100 μM (Tables 13-15)): not exhibited | effect of inhibiting cell proliferation in the triple drug treatment group ([1]; cisplatin 1 μM or doxorubicin 1 μM mixed with gossypol 5 μM and phenformin 100 μM (Tables 14-15, FIGS. 5B, 5C)): level similar to that of the double drug treatment group | tumor growth level [2]: significantly inhibited tumor growth compared to the solvent control group | degree of cell proliferation with respect to the untreated control [3]: proliferation of cancer cells could be inhibited at a significant level
